Measured values reported in patent publication US9649324B2, “Use of tylvalosin as antiviral agent” (ECO ANIMAL HEALTH LIMITED, priority 2006, dated 2017).

How the values were obtained:
[1] = system: PRRSV strain, VR2385; assay: Efficacy of tylvalosin in feed for the control of PRRSV in challenged pigs (Example 14); format: in vivo, pig; conditions: for Mean maximum respiratory score: score 0-6
[2] = system: Caco-2 cells; assay: Intracellular accumulation and trans-epithelial transport in polarised Caco-2 cells; format: in vitro ADME, human
Description: Caco-2 cells were seeded at a density of 0.8×10^6 cells per well of a Transwell Clear filter 6 well plate, 0.4 μm pore size. The cells were incubated with 2 mL medium in both apical and basolateral chambers. This medium was replaced every 2 days for 10-14 days. Transepithelial resistance was measured using Millicell ERS apparatus (Millipore) at day 7, 10 and/or 14 in order to identify when the cells had become polarised. Readings of >1000 Ω were indicative of polarised cells. […]
All the supernatant and cell samples were transported frozen (at approximately −20° C.) to York Bioanalytical Solutions (York, England) for analysis. Briefly, 0.25 g of buffer (RPMI medium containing 10% FCS) was weighed into a polypropylene tube. A 50 μL volume of the appropriate working solution was added to the quality control (QC) samples. Methanol (50 μL) was added to each blank sample used for preparation of calibration standards, recovery samples and reagent blanks. A 2.5 mL volume of 0.1 M phosphate buffer was added to each sample, vortex mixed for approximately 1 min and then centrifuged at 3220×g for 10 min at 4° C.
For the liquid-liquid clean-up phase, an aliquot (100 μL) of the supernatant was transferred to a polypropylene tube. The pH was adjusted to pH 8-8.5 by the addition of 0.1 M NaOH, and vortex mixed. Ethyl acetate (5 mL) was added and after capping, the whole mixture was shaken for 10 min and then centrifuged at 3220×g for 10 min at 4° C.
Ammonium acetate (20 mM; pH native)—formic acid, 1000:3, v/v (100 μL) was added to each well in a 2 mL polypropylene collection plate. An aliquot of the ethyl acetate mixture (100 μL) was transferred to the polypropylene collection plate and evaporated under nitrogen (40° C.) until the ethyl acetate was fully evaporated whilst the ammonium acetate remained. Methanol (100 μL) was added to each well, excluding the calibration standards.
To each well containing a calibration standard, 100 μL of the appropriate calibration working solution was added. Samples were then vortex mixed for at least 10 min and submitted for liquid chromatography with tandem mass spectrometric analysis. The method stated was applicable to the samples of media (and the calibration standards and quality control samples).
For the cells, the sample tubes were weighed, and 100 μL of acetonitrile was added. The samples were vortex mixed for 10 sec, then centrifuged at 10285×g at 4° C. for 5 min. The sample was transferred to a polypropylene tube. The original sample tube was washed with 0.1 M phosphate buffer (1 mL). This was transferred to the polypropylene tube. A second wash of 1 mL was made, then a final wash of 0.5 mL. The polypropylene tube was now at the same stage as the end of the liquid extraction, but with the cells present rather than media. This was then taken through the sample preparation as described above. The original sample tubes were allowed to dry (i.e. any remaining solvent evaporated off) and were then reweighed to determine the weight of cells in the sample, to allow the concentration per gram of cells to be determined.

[3] = Group 1, 100 ppm in feed, Trial Day 17
[4] = Group 1, 100 ppm in feed, Trial Day 28
[5] = Group 2, 200 ppm in feed, Trial Day 17
[6] = Group 2, 200 ppm in feed, Trial Day 28
[7] = Group 3, 600 ppm in feed, Trial Day 17
[8] = Group 3, 600 ppm in feed, Trial Day 28
[9] = Caco-2, 10 μg/mL, apical administration, 240 min
[10] = Caco-2, 100 μg/mL, apical administration, 30 min
[11] = Caco-2, 100 μg/mL, apical administration, 240 min
[12] = Caco-2, 100 μg/mL, apical administration, between 60 min and 120 min
[13] = Caco-2, 100 μg/mL, basolateral administration, 30 min
[14] = Caco-2, 100 μg/mL, basolateral administration, 240 min

With `CCC1OC(=O)CC(OC(C)=O)C(C)C(OC2OC(C)C(OC3CC(C)(O)C(OC(=O)CC(C)C)C(C)O3)C(N(C)C)C2O)C(CC=O)CC(C)C(=O)C=CC(C)=CC1COC1OC(C)C(O)C(OC)C1OC` (stereo not shown) [tylvalosin, 3-O acetyl-4″-O-isovaleryltylosin] the “severity of macroscopic pneumonia” value ([1]; 100, 200, 600 ppm in feed versus non-treated controls) was “No differences”, the “Mean average rectal temperature” value ([1]; Group 1, 100 ppm in feed) was 103.6 ± 0.1 and the “Mean maximum rectal temperature” value ([1]; Group 1, 100 ppm in feed) was 104.5 ± 0.2 A. For the same molecule, the “Mean microscopic PRRSV lung lesion score” value ([1]; Group 1, 100 ppm in feed, Necropsy 1 (Trial Day 17, 10 days post infection)) was 0.2 ± 0.2 A, the “Mean microscopic PRRSV lung lesion score” value ([1]; Group 1, 100 ppm in feed, Necropsy 2 (Trial Day 28, 21 days post infection)) was 2.1 ± 0.4 and the Average daily gain ([1]; Group 1, 100 ppm in feed, Trial Day 7) was 1.57 ± .09 lbs. For the same molecule, the “Mean real-time RT-PCR (PRRSV RNA copy numbers in serum)” value (from here on “Mean real-time RT-PCR”) ([1]; Group 1, 100 ppm in feed, Trial Day 10) was 15,289.88 B, C, the Average daily gain ([1]; Group 1, 100 ppm in feed, Trial Day 14) was 1.5 ± .05 lbs and the Average daily gain [1, 3] was 1.59 ± .05 A lbs. For the same molecule, the “Mean real-time RT-PCR” value [1, 3] was 95,315.72, the “Mean real-time RT-PCR” value ([1]; Group 1, 100 ppm in feed, Trial Day 21) was 36,451.13 and the Average daily gain [1, 4] was 1.42 ± .05 lbs. The “Mean real-time RT-PCR” value [1, 4] was 5,301.63, the “Mean maximum respiratory score” value ([1]; Group 1, 100 ppm in feed) was 0.5 ± 0.1 A* and the “Mean average rectal temperature” value ([1]; Group 2, 200 ppm in feed) was 103.7 ± 0.1. For the same molecule, the “Mean maximum rectal temperature” value ([1]; Group 2, 200 ppm in feed) was 104.7 ± 0.2 A, the “Mean microscopic PRRSV lung lesion score” value ([1]; Group 2, 200 ppm in feed, Necropsy 1 (Trial Day 17, 10 days post infection)) was 2.0 ± 0.3 B and the “Mean microscopic PRRSV lung lesion score” value ([1]; Group 2, 200 ppm in feed, Necropsy 2 (Trial Day 28, 21 days post infection)) was 1.9 ± 0.3. The Average daily gain ([1]; Group 2, 200 ppm in feed, Trial Day 7) was 1.52 ± .10 lbs, the “Mean real-time RT-PCR” value ([1]; Group 2, 200 ppm in feed, Trial Day 10) was 19,336.8 C and the Average daily gain ([1]; Group 2, 200 ppm in feed, Trial Day 14) was 1.45 ± .06 lbs. The Average daily gain [1, 5] was 1.59 ± .07 A, B lbs, the “Mean real-time RT-PCR” value [1, 5] was 78,804.81 and the “Mean real-time RT-PCR” value ([1]; Group 2, 200 ppm in feed, Trial Day 21) was 18,724.88. For the same molecule, the Average daily gain [1, 6] was 1.53 ± .07 lbs, the “Mean real-time RT-PCR” value [1, 6] was 892.36 and the “Mean maximum respiratory score” value ([1]; Group 2, 200 ppm in feed) was 0.6 ± 0.2 A. The “Mean average rectal temperature” value ([1]; Group 3, 600 ppm in feed) was 103.8 ± 0.1, the “Mean maximum rectal temperature” value ([1]; Group 3, 600 ppm in feed) was 105.8 ± 0.3 B and the “Mean microscopic PRRSV lung lesion score” value ([1]; Group 3, 600 ppm in feed, Necropsy 1 (Trial Day 17, 10 days post infection)) was 2.0 ± 0.3 B. For the same molecule, the “Mean microscopic PRRSV lung lesion score” value ([1]; Group 3, 600 ppm in feed, Necropsy 2 (Trial Day 28, 21 days post infection)) was 1.5 ± 0.3, the Average daily gain ([1]; Group 3, 600 ppm in feed, Trial Day 7) was 1.83 + .16 lbs and the “Mean real-time RT-PCR” value ([1]; Group 3, 600 ppm in feed, Trial Day 10) was 54,487.19 A, B. The Average daily gain ([1]; Group 3, 600 ppm in feed, Trial Day 14) was 1.47 ± .06 lbs, the Average daily gain [1, 7] was 1.44 ± .04 A, B lbs and the “Mean real-time RT-PCR” value [1, 7] was 146,655.4. For the same molecule, the “Mean real-time RT-PCR” value ([1]; Group 3, 600 ppm in feed, Trial Day 21) was 30,260.69, the Average daily gain [1, 8] was 1.47 ± .06 lbs and the “Mean real-time RT-PCR” value [1, 8] was 1,292.31. The “Mean maximum respiratory score” value ([1]; Group 3, 600 ppm in feed) was 1.8 ± 0.3 B, the “clinical disease and viremia associated with PRRSV infection” value ([1]; lower doses (in feed)) was “appears to reduce clinical disease and viremia” and the average intracellular concentration ([2]; Caco-2, 10 μg/mL, apical administration, 120 min) was 42.2 μg/mg cells. For the same molecule, the average intracellular concentration [2, 9] was 34.3 μg/mg cells, the “basolateral chamber content as average % of the apical chamber value” [2, 9] was 10.47% and the “intracellular:extracellular ratio (fold concentration)” value [2, 9] was 3.49 fold. For the same molecule, the average intracellular concentration [2, 10] was 428 μg/mg cells, the “intracellular:extracellular ratio” value [2, 10] was 4.64 and the intracellular concentration [2, 11] was 375 μg/mg cells. The “intracellular:extracellular ratio” value [2, 11] was 5.85, the “tylvalosin in opposite (basolateral) chamber compared to the administration chamber” value [2, 11] was 19% and the “intracellular:extracellular ratio (peak, average value)” value [2, 12] was 10.23-15.58. For the same molecule, the maximum intracellular concentration [2, 12] was 559.5-620 μg/mg cells, the average intracellular concentration [2, 13] was 493 μg/mg cells and the “intracellular:extracellular ratio” value [2, 13] was 7. The intracellular concentration [2, 14] was 155.5 μg/mg cells, the “intracellular:extracellular ratio” value [2, 14] was 3.57 and the “tylvalosin in opposite (apical) chamber compared to the administration chamber” value [2, 14] was 22.05%. For the same molecule, the “total amount of tylvalosin transported across the cells” value ([2]; Caco-2, after 4 h (discussion)) was “about 20%”.
